Laboratory results: publication PMC6002448, “Evaluation of the effect of the new methoxy-stilbenes on expression of receptors and enzymes involved in estrogen synthesis in cancer breast cells” (Molecular and Cellular Biochemistry, 2017)

Molecular target: T1, CYP19 (aromatase) (Homo sapiens, UniProt P11511)
T1 construct: gene CYP19A1; human recombinant CYP19
T1 sequence (P11511 1-503): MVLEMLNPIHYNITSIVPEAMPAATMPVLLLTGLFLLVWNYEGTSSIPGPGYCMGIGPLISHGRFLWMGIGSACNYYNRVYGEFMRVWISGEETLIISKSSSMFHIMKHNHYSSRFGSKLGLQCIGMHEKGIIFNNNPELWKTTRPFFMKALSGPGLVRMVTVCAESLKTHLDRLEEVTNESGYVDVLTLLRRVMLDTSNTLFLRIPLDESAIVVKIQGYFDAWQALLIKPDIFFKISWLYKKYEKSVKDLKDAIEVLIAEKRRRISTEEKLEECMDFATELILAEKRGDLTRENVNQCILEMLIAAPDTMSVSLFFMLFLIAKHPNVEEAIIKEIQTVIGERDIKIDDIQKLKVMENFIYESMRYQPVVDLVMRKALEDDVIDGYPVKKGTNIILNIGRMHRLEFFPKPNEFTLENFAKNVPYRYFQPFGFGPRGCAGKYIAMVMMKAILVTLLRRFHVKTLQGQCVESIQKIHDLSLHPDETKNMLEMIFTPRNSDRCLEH
Experiment: fluorometric CYP19/MFC inhibitor screening kit (recombinant enzyme)
Type: biochemical

IC50: ~85 µM
Structure (SMILES): COc1ccccc1/C=C/c1ccc(OC)c(OC)c1 [3MS, 3,4,2′-trimethoxy-trans-stilbene]
